Legend:
[1] = test system: Dorsal root ganglia-Schwann cell co-cultures; assay: in vitro myelination in dorsal root ganglia-Schwann cell co-cultures; type: cell-based
From the text: The inventors hypothesized that NAALADase may play a role in signaling myelin formation and inhibition of NAALADase may facilitate myelination. To test this hypothesis, the inventors examined the effects of several NAALADase inhibitors in a well established in vitro model system of myelination. Dorsal root ganglia-Schwann cell co-cultures were established as previously described (Einheber et al., J. Cell. Biol., Vol. 123, p. 1223). Following 7 days in co-culture, myelination was initiated following the addition of serum and ascorbic acid with various doses of NAALADase inhibitors (1 nM to 10 μM) or progesterone (20 nM; positive control). The extent of myelination was examined between days 14-21 using immunocytochemical staining for myelin basic protein (MBP), a known myelin marker.

[2] = test system: streptozotocin (STZ)-induced peripheral diabetic neuropathy; assay: in vivo STZ-induced peripheral diabetic neuropathy model, plantar test; parameters: species or system Male Sprague-Dawley rats; settings: 50 mg/kg i.p. once per day, following 5 days of dosing
Description: NAALADase inhibition in an in vivo streptozotocin (STZ)-induced peripheral diabetic neuropathy model was studied. Male Sprague-Dawley rats weighing 200-250 g were rendered diabetic by intravenous injection of 60 mg/kg STZ into the tail vein. Plasma glucose levels were determined 3 weeks after STZ administration. Only STZ-animals with plasma glucose levels>300 mg/dL (17 mM) were used in the study. Thermal pain threshold and withdrawal latency were used to assess the status of the small dorsal root ganglion (DRG) sensory neurons. Pain was monitored using the plantar test (Hargreaves' Method) using a Basile Plantar apparatus built by Ugo Basil, Vaarese, Italy.
At two months following the STZ administration, the diabetic animals were hyperalgesic as compared to non-diabetic controls as determined by their difference in withdrawal latency. At this time, the rats were administered either the NAALADase inhibitor Compound 2 (50 mg/kg) or vehicle intraperitoneally once per day for 20 days. Thermal pain responses were measured at days 3, 5, 12 and 19 post-dosing. […] This difference was maintained throughout the observation period.

[3] = test system: acetic acid (0.6%) induced writhing; assay: acetic acid model of pain (writhing); type: in vivo, mice; settings: pretreated
From the text: One source of neuronal glutamate is thought to derive from the abundant neuropeptide NAAG which is hydrolyzed by NAALADase to liberate free glutamate. The inventors hypothesized that inhibition of NAALADase could limit pain by preventing this source of glutamate. To test this hypothesis, the inventors examined the possible antinocipetive effects of several NAALADase inhibitors in the formalin-, acetic acid- and chronic constrictive injury (CCI; “Bennett model”) models of pain. […] On day 7, 5% formalin was injected into the dorsum of the rat's hindpaw.

[4] = test system: STZ-induced diabetic rats; assay: in vivo assay on neuropathic pain in STZ-diabetic rats (Hargreaves); parameters: species or system Male Sprague-Dawley rats; settings: 10 mg/kg i.p. daily, started 45 days post-STZ
Description: (§1) Male Sprague-Dawley rats (200-225 g) were rendered diabetic by intravenous administration of streptozotocin (STZ, 70 mg/kg in phosphate buffered saline). Diabetic animals were divided into five groups: one group receiving Compound 2 (10 mg/kg or 1 mg/kg), Compound 1 (10 mg/kg or 1 mg/kg) or vehicle. Another group of animals (non-STZ treated) served as non-diabetic controls. Drug/vehicle treatment was started in diabetic animals 45 days post-STZ administration. STZ-induced diabetic rats were tested for sensitivity to a heat source as soon as blood glucose levels rose to 320 mg/dl or above (30 days post STZ). The rats were then acclimated to the Hargreaves apparatus and thermal nociception was monitored using an infrared heat source directed into the […] surface of the hindpaw, and the time taken for the animal to remove its paw noted to the nearest 0.1 seconds (see Hargreaves et al. 1998 for detailed method). The intensity of the beam source was adjusted such that the mean latency for control animals (non-STZ treated) was approximately 10 seconds. Each animal was tested 8 times and the mean difference score (between mean non-diabetic control latency and mean diabetic latency) are graphically presented in FIGS. 19A and 19B.

BB/W diabetic rats [5] = assay: progression of neuropathic pain in BB/W diabetic rats, thermal nociception; type: in vivo, Male BB/W rats; settings: 10 mg/kg i.p. daily; starting after 4 weeks, through six months
From the text: (§2) Male BB/W rats (BR1, Mass) spontaneously develop a cell mediated autoimmune destruction of pancreatic B cells, resulting in onset of insulin-dependent (Type I) diabetes (Guberski 1994). […] This renders them valuable for experimental trials of new compounds for future treatments of this major disorder. In the present study, Compound 1 and Compound 2 were examined for their ability to alter the progression of diabetic neuropathy. The rats received daily injection of Compound 1 or Compound 2 (10 mg/kg i.p.) or vehicle, starting at the onset of diabetes (hyperglycemia) and up to 6 months thereafter. Another group of non-diabetic rats also receiving vehicle were tested. All animals were continuously monitored for body weight, urine volume, blood sugar and glycated haemoglobin. In the first month of the study, all animals were tested for thermal nociception in a Hargreaves apparatus, weekly. After the first month this was done biweekly and then monthly. The testing consists of directing an infrared heat source onto the […] surface of the rat hindpaw and noting the time taken for the animal to remove its paw (for detailed method see Hargreaves et al. 1998). Each animal was tested 8 times and the mean withdrawal latency noted.

BB/W diabetic rats [6] = assay: nerve conduction velocity in BB/W diabetic rats; type: in vivo, Male BB/W rats; settings: 10 mg/kg daily; starting at 8 weeks, through six months
From the text: as §2, with “Each animal was tested 8 times and the mean withdrawal latency noted.” left out
Nerve conduction velocity was also measured every two weeks through the first eight weeks of treatment and every month thereafter through to the six months of treatment (see De Koning et al. 1987 for method details). […]

STZ-diabetic animals = assay: motor and sensory nerve conduction velocity in STZ-diabetic animals; type: in vivo, rats; settings: 10 mg/kg daily
Description: as §1
Motor and sensory nerve conduction velocity was also measured in STZ-diabetic animals after 4, 8 and 12 weeks of treatment (see De Koning and Gispen 1987 for detailed method). Briefly, stimulating needle electrodes were inserted close to the sciatic and tibial nerves with recording electrodes being placed subcutaneously over the distal foot muscles, in anesthetized rats.

PCP-treated rats = assay: in vivo assay on schizophrenia (PCP model); settings: 50 mg/kg i.p. before PCP (5 mg/kg)
Description: Rats treated with PCP develop symptoms, such as frantic running and incessant head-turning, that parallel psychotic symptoms in humans. Thus, to examine the effects of NAALADase inhibition on schizophrenia, rats were treated intraperitoneally with Compound 1 (50 mg/kg), Compound 2 (50 mg/kg) or a vehicle (H2O) before they received PCP (5 mg/kg). Head rolling scores were measured for over 2 hours following PCP injection.

Compound: O=C(O)CCC(CP(=O)(O)Cc1c(F)c(F)c(F)c(F)c1F)C(=O)O (stereo not shown) [Compound 2, 2-[[(2,3,4,5,6-pentafluorobenzyl)hydroxyphosphinyl]methyl]-pentanedioic acid]
- immunostaining of MBP ([1]; 1 nM, two week treatment): significant increase
- extent of myelination vs. maximal doses of ascorbic acid and progesterone ([1]; high dose, 1 μM): greater extent of myelination
- withdrawal latency vs. vehicle animals [2]: significant increase
- acetic acid (0.6%) induced writhing vs. vehicle control [3]: significantly attenuated
- hyperalgesic response in diabetic rats [4]: completely reversed
- withdrawal latencies vs. diabetic vehicle-treated rats (BB/W diabetic rats [5]): longer withdrawal latencies
- nerve conduction deficits vs. diabetic controls receiving vehicle (BB/W diabetic rats [6]): significantly less severe nerve conduction deficits
- sensory nerve conduction velocity (STZ-diabetic animals; after 8 weeks): significant improvement
- motor nerve conduction velocity (STZ-diabetic animals; after 12 weeks): significant improvement
- locomotor-activating effects of PCP (head rolling scores) (PCP-treated rats): significantly reduced
